Experimental data taken from paper PMC5036617 (Toxicological Sciences, 2016).

Legend:
[1] = system: HepG2 cells; assay: Mitochondrial stress test, OCR analysis (Seahorse XFe96); format: cell-based; details: for basal respiration / maximal respiration: glucose medium, 7.8–500 µM; for basal respiration / maximal respiration / ATP-linked OCR as a percentage of maximal respiration / proton leak as a percentage of maximal respiration / spare respiratory capacity as a percentage of maximal respiration: vs vehicle control
Method: HepG2 cells were collected by trypsinization and seeded on a collagen-coated XF 96-well cell culture microplate (25 000 cells/100 µl medium/well) and incubated overnight in glucose medium (37 °C, 5% CO2). All assays used ≤ 0.5% DMSO as a vehicle control. Cells were incubated for 1 h (37°C, 0% CO2) before culture medium was replaced by 175 µl of unbuffered Seahorse XF Base medium supplemented with glucose (25 mM), L-glutamine (2 mM), sodium pyruvate (1 mM), pre-warmed to 37 °C (pH 7.4). Prior to measurement of OCR, the Seahorse XFe96 instrument gently mixed the assay medium in each well for 10 min to enable the oxygen partial pressure to reach equilibrium. […] There were 9 OCR measurement cycles following compound injection and each measurement cycle consisted of a 3 min mix and 3 min measure. […] After stress test compound injections there were 3 measurement cycles before the injection of the next stress test compound. This enabled the calculation of basal respiration (OCR prior to oligomycin injection—non-mitochondrial OCR), proton leak (OCR after oligomycin injection—non-mitochondrial OCR), ATP-linked OCR (basal respiration—proton leak—non-mitochondrial OCR), maximal respiration (first injection after FCCP injection—non-mitochondrial OCR) and spare respiratory capacity (maximal respiration—basal respiration) (Figure 2).  FIG. 2 Representative control mitochondrial stress test trace. Mitochondrial stress test assays consisted of a series of compound injections into the cell culture microplate. […] Remaining injections consisted of oligomycin (ATP synthase inhibitor), FCCP (OXPHOS uncoupler), and rotenone/antimycin A (complex I and III inhibitors, respectively) with each followed by 3 measurement cycles. This series of manipulations enabled the calculation of parameters: basal, ATP-linked, maximum, and non-mitochondrial OCR, as well as proton leak. Each measurement cycle was a total of 6 min. Following completion of OCR assays, medium was removed from all wells and 20 µl of somatic cell ATP releasing agent was added to each well before shaking for 1 min and transfer of 10 µl of lysate to a 96-well plate and performance of a BCA assay according to the manufacturer’s instructions. Protein content per well was used to normalize OCR.

[2] = system: androgen receptor; design: method as in Shet et al., 1997; details: metabolite compared with parent compound; ref Shet et al., 1997; cited from earlier work
[3] = ref Chu et al., 1998; Wysowski and Fourcroy, 1996; cited from earlier work

Row | Compound | basal respiration [1] | maximal respiration [1] | ATP-linked OCR as a percentage of maximal respiration ([1]; up to 500 µM) | proton leak as a percentage of maximal respiration ([1]; up to 500 µM) | spare respiratory capacity as a percentage of maximal respiration ([1]; up to 500 µM) | androgen receptor binding affinity [2] | OCR upon compound injection, mitochondrial stress test ([1]; up to 500 µM) | cases of hospitalization or death (idiosyncratic DILI) in treated patients [3] [%]
1 | CC(C)(O)C(=O)Nc1ccc([N+](=O)[O-])c(C(F)(F)F)c1 [2-hydroxyflutamide] | significant decrease | significant decrease | significant decrease | significant increase | significant decrease | higher androgen receptor binding affinity than its parent compound |  | 
2 | CC(C)C(=O)Nc1ccc([N+](=O)[O-])c(C(F)(F)F)c1 [Flutamide] | significant decrease | significant decrease | significant decrease | significant increase | significant decrease |  | immediate concentration-dependent reduction in OCR | 0.03
